Patent publication US9776995B2, “Bicyclic sulfonamide compounds as sodium channel inhibitors” (AMGEN INC., priority 2013, dated 2017)
pIC50: −log10 of the molar value.

These molecules were tested against Nav 1.7 (Homo sapiens (Human), UniProt Q15858) (assay: Nav 1.7 in vitro PX assay (PatchXpress whole cell voltage clamp)). Conditions: not given.
Format: cell-based
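Also: holding potential set for 20 to 50% inactivation, sodium current evoked by a 20 ms step to −10 mV, peak current inhibition read after compound exposure, 3–5 cells per concentration.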

Sequence of Nav 1.7 (Q15858 whole entry): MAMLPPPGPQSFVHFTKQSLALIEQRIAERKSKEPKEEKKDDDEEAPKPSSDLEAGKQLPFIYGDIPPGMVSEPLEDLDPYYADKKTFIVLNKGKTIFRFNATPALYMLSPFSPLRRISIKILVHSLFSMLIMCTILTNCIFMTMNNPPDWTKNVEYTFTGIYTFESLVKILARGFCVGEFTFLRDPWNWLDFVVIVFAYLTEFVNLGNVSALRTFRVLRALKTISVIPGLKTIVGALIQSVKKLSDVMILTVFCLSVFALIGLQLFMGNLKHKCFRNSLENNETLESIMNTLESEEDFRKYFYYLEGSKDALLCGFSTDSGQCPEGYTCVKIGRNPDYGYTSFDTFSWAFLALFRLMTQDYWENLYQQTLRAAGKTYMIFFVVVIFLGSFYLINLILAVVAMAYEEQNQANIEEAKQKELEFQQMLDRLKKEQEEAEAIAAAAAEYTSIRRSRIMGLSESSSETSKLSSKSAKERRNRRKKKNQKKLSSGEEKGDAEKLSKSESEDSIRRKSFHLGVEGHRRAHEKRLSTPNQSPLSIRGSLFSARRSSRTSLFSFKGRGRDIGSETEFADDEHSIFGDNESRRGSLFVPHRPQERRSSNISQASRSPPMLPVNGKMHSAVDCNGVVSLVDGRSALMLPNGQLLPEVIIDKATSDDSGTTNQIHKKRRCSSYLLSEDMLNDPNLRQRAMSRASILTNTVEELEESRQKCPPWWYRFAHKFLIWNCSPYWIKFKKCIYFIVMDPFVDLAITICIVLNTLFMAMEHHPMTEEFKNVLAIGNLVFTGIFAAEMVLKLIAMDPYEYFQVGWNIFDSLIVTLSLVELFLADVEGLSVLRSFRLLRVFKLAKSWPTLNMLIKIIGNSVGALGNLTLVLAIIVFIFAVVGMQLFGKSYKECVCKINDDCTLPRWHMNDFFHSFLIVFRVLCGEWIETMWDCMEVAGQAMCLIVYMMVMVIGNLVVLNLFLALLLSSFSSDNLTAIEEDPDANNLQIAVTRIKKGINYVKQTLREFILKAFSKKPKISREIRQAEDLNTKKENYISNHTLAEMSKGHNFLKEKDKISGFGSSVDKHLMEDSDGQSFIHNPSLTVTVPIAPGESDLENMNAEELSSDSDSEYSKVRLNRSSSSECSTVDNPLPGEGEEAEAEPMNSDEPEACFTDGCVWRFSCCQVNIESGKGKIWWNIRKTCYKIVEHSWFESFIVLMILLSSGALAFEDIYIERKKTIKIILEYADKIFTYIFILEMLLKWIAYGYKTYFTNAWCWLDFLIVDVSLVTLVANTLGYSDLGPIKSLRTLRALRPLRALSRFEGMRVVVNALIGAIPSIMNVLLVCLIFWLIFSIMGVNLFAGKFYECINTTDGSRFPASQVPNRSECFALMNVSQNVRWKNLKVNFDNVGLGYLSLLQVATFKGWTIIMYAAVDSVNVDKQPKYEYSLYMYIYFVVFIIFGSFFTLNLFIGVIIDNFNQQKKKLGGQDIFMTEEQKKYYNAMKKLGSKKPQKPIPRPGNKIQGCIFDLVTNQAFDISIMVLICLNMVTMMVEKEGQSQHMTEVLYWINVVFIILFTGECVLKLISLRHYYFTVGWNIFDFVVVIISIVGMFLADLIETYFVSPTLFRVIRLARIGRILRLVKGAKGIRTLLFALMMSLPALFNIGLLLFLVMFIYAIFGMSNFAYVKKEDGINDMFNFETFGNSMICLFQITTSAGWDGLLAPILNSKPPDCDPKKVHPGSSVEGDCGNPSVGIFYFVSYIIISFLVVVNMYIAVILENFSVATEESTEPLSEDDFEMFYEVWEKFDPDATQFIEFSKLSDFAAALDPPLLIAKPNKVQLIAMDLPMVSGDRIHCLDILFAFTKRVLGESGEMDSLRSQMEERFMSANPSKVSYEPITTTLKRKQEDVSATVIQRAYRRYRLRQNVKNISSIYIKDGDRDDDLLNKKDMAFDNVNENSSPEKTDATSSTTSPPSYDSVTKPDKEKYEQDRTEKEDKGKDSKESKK

Structure (SMILES) | pIC50
COc1cc(-c2cccc(F)c2)c(Cl)cc1-c1ncnc2cc(S(=O)(=O)Nc3cscn3)ccc12 [Example 378, 4-(2-chloro-3′-fluoro-5-methoxy-[1,1′-biphenyl]-4-yl)-N-(thiazol-4-yl)quinazoline-7-sulfonamide 2,2,2-trifluoroacetate] | 6.64

Same assay, conditions: HEK 293 cells stably transfected with human Nav1.7; PatchXpress; partially inactivated state

Structure (SMILES) | pIC50
COc1cc(-c2cc(C)ccc2F)c(C)cc1-c1ncnc2cc(S(=O)(=O)Nc3ccon3)ccc12 [Example 556, 4-(2′-fluoro-5-methoxy-2,5′-dimethyl-4-biphenylyl)-N-3-isoxazolyl-7-quinazolinesulfonamide] | 6.95
COc1cc(-c2cccc(F)c2)c(Cl)cc1-c1c(C)cnc2cc(S(=O)(=O)Nc3ccon3)ccc12 (atropisomer, axis not shown; (M)) [Example 330, (M)-4-(2-chloro-3′-fluoro-5-methoxy-[1,1′-biphenyl]-4-yl)-N-(isoxazol-3-yl)-3-methylquinoline-7-sulfonamide] | 6.30
COc1cc(-c2cccc(F)c2)c(Cl)cc1-c1c(C#N)cnc2cc(S(=O)(=O)Nc3ccon3)ccc12 (atropisomer, axis not shown; (P)) [Example 335, (P)-4-(2-chloro-3′-fluoro-5-methoxy-[1,1′-biphenyl]-4-yl)-3-cyano-N-(isoxazol-3-yl)quinoline-7-sulfonamide] | 6.95
COc1cc(-c2cc(Cl)ccc2C)c(C)cc1-c1ncnc2cc(S(=O)(=O)Nc3ccon3)ccc12 [Example 558, 4-(5′-chloro-5-methoxy-2,2′-dimethyl-4-biphenylyl)-N-3-isoxazolyl-7-quinazolinesulfonamide] | 7.39

Second part, the molecule after the results:

pIC50 | Structure (SMILES)
5.86 | COc1cc(-c2cccc(F)c2)c(Cl)cc1-c1c(C)ncc2cc(S(=O)(=O)Nc3ccon3)ccc12 (atropisomer, axis not shown; (P)) [Example 318, (P)-4-(2-chloro-3′-fluoro-5-methoxy-4-biphenylyl)-N-3-isoxazolyl-3-methyl-7-isoquinolinesulfonamide]
7.70 | COc1cc(-c2cc(F)cc(Cl)c2)c(F)cc1-c1[nH]c(=O)cc2cc(S(=O)(=O)Nc3ccon3)ccc12 [Example 547, 1-(3′-chloro-2,5′-difluoro-5-methoxy-4-biphenylyl)-N-3-isoxazolyl-3-oxo-2,3-dihydro-6-isoquinolinesulfonamide]
7.80 | COc1cc(-c2ccc(Cl)c(C)c2)c(F)cc1-c1[nH]c(=O)cc2cc(S(=O)(=O)Nc3ccon3)ccc12 [Example 548, 1-(4′-chloro-2-fluoro-5-methoxy-3′-methyl-4-biphenylyl)-N-3-isoxazolyl-3-oxo-2,3-dihydro-6-isoquinolinesulfonamide]
7.55 | COc1cc(-c2cccc(Cl)c2)c(F)cc1-c1ncnc2cc(S(=O)(=O)Nc3ncon3)ccc12 [Example 376, 4-(3′-chloro-2-fluoro-5-methoxy-[1,1′-biphenyl]-4-yl)-N-(1,2,4-oxadiazol-3-yl)quinazoline-7-sulfonamide]
7.11 | COc1cc(-c2ccc(F)c(Cl)c2)c(C)cc1-c1ncnc2cc(S(=O)(=O)Nc3ncccn3)ccc12 [Example 345, 4-(3′-chloro-4′-fluoro-5-methoxy-2-methyl-[1,1′-biphenyl]-4-yl)-N-(pyrimidin-2-yl)quinazoline-7-sulfonamide]
7.55 | COc1cc(-c2cccc(C(F)(F)F)c2)c(F)cc1-c1c2ccc(S(=O)(=O)Nc3ccon3)cc2cc(=O)n1C (atropisomer, axis not shown; (P)) [Example 551, (P)-1-(2-fluoro-5-methoxy-3′-(trifluoromethyl)-4-biphenylyl)-N-3-isoxazolyl-2-methyl-3-oxo-2,3-dihydro-6-isoquinolinesulfonamide]
7.35 | COc1cc(-c2cccc(F)c2)c(Cl)cc1-c1[nH]c(=O)cc2cc(S(=O)(=O)Nc3ncccn3)ccc12 [Example 553, 1-(2-chloro-3′-fluoro-5-methoxy-4-biphenylyl)-3-oxo-N-2-pyrimidinyl-2,3-dihydro-6-isoquinolinesulfonamide]
4.55 | COc1cc(F)c(-c2ccccn2)cc1-c1nccc2cc(S(=O)(=O)Nc3ccon3)ccc12 [Example 399]
6.79 | COc1cc(-c2cccc(Cl)c2)c(F)cc1-c1c[nH]c(=O)c2cc(S(=O)(=O)Nc3ccon3)ccc12 [Example 343, 4-(3′-chloro-2-fluoro-5-methoxy-[1,1′-biphenyl]-4-yl)-N-(isoxazol-3-yl)-1-oxo-1,2-dihydroisoquinoline-7-sulfonamide]

Same assay, conditions: PatchXpress (PX)

Structure (SMILES) | pIC50
COc1cc(-c2cc(F)cc(F)c2)c(C)cc1-c1ncnc2cc(S(=O)(=O)Nc3ccon3)ccc12 [Example 61, 4-(3′,5′-DIFLUORO-5-METHOXY-2-METHYL-[1,1′-BIPHENYL]-4-YL)-N-(ISOXAZOL-3-YL)QUINAZOLINE-7-SULFONAMIDE] | 7.30
COc1cc(-c2cc(C)cc(F)c2)c(C)cc1-c1ncnc2cc(S(=O)(=O)Nc3ccon3)ccc12 [Example 260, 4-(3′-fluoro-5-methoxy-2,5′-dimethyl-4-biphenylyl)-N-3-isoxazolyl-7-quinazolinesulfonamide] | 7.44
COc1cc(-c2cc(C)c(C)cc2C)c(C)cc1-c1nccc2cc(S(=O)(=O)Nc3ccon3)ccc12 [Example 275, N-3-isoxazolyl-1-(5-methoxy-2,2′,4′,5′-tetramethyl-4-biphenylyl)-6-isoquinolinesulfonamide] | 6.62
COc1cc(-c2cccc(C(F)(F)F)c2)c(C)cc1-c1ncnc2cc(S(=O)(=O)Nc3ccon3)ccc12 [Example 265, N-3-isoxazolyl-4-(5-methoxy-2-methyl-3′-(trifluoromethyl)-4-biphenylyl)-7-quinazolinesulfonamide] | 7.74
COc1cc(-c2cc(C)cc(Cl)c2)c(C)cc1-c1ncnc2cc(S(=O)(=O)Nc3ccon3)ccc12 [Example 268, 4-(3′-chloro-5-methoxy-2,5′-dimethyl-4-biphenylyl)-N-3-isoxazolyl-7-quinazolinesulfonamide] | 7.62
COc1cc(C(F)F)c(C)cc1-c1nccc2cc(S(=O)(=O)Nc3ccon3)ccc12 [Example 250, 1-(4-(difluoromethyl)-2-methoxy-5-methylphenyl)-N-3-isoxazolyl-6-isoquinolinesulfonamide] | 6.14
COc1cc(C(F)(F)F)c(C)cc1-c1nccc2cc(S(=O)(=O)Nc3ccon3)ccc12 [Example 60, N-(ISOXAZOL-3-YL)-1-(2-METHOXY-5-METHYL-4-(TRIFLUOROMETHYL)PHENYL)ISOQUINOLINE-6-SULFONAMIDE] | 6.72
COc1cc(-c2cccc(F)c2)ccc1[C@@H]1c2ccc(S(=O)(=O)Nc3ccon3)cc2CCN1C(C)=O [Example 53-A, (S)-2-ACETYL-1-(3′-FLUORO-3-METHOXY-[1,1′-BIPHENYL]-4-YL)-N-(ISOXAZOL-3-YL)-1,2,3,4-TETRAHYDROISOQUINOLINE-6-SULFONAMIDE] | 5.96

Next, values leading:

pIC50 | Structure (SMILES)
7.92 | COc1cc(-c2cccc(Cl)c2)c(C)cc1-c1ncnc2cc(S(=O)(=O)Nc3ccon3)ccc12 [Example 264, 4-(3′-chloro-5-methoxy-2-methyl-4-biphenylyl)-N-3-isoxazolyl-7-quinazolinesulfonamide]
7.13 | COc1cc(-c2cc(C)cc(F)c2)c(C)cc1-c1nccc2cc(S(=O)(=O)Nc3ccon3)ccc12 [Example 273, 1-(3′-fluoro-5-methoxy-2,5′-dimethyl-4-biphenylyl)-N-3-isoxazolyl-6-isoquinolinesulfonamide]
6.54 | COc1cc(-c2cccc(F)c2)c(Cl)cc1-c1nccc2cc(S(=O)(=O)Nc3ccsn3)ccc12 [Example 254, 1-(2-chloro-3′-fluoro-5-methoxy-4-biphenylyl)-N-3-isothiazolyl-6-isoquinolinesulfonamide]
6.77 | COc1cc(-c2cccc(C)c2)c(C)cc1-c1nccc2cc(S(=O)(=O)Nc3ccon3)ccc12 [Example 276, N-3-isoxazolyl-1-(5-methoxy-2,3′-dimethyl-4-biphenylyl)-6-isoquinolinesulfonamide]

Same assay, conditions: in-vitro Nav 1.7 PX (PatchXpress)

Structure (SMILES) | pIC50
COc1cc(-c2cc(C)ccc2F)c(C)cc1-c1ncnc2cc(S(=O)(=O)Nc3ccon3)ccc12 [Example 307, 4-(2′-fluoro-5-methoxy-2,5′-dimethyl-4-biphenylyl)-N-3-isoxazolyl-7-quinazolinesulfonamide] | 6.95
COc1cc(-c2cc(Cl)ccc2F)c(C)cc1-c1ncnc2cc(S(=O)(=O)Nc3ccon3)ccc12 [Example 308, 4-(5′-chloro-2′-fluoro-5-methoxy-2-methyl-4-biphenylyl)-N-3-isoxazolyl-7-quinazolinesulfonamide] | 7.25
COc1cc(-c2cc(F)cc(C3CC3)c2)c(C)cc1-c1ncnc2cc(S(=O)(=O)Nc3ccon3)ccc12 [Example 306, 4-(3′-cyclopropyl-5′-fluoro-5-methoxy-2-methyl-4-biphenylyl)-N-3-isoxazolyl-7-quinazolinesulfonamide] | 7.21
CCOc1ccc(-c2cc(OC)c(-c3ncnc4cc(S(=O)(=O)Nc5ccon5)ccc34)cc2F)cc1C [Example 304, 4-(4′-ethoxy-2-fluoro-5-methoxy-3′-methyl-4-biphenylyl)-N-3-isoxazolyl-7-quinazolinesulfonamide] | 6.21

Results, then the molecule that gave them:

pIC50 | Structure (SMILES)
7.40 | COc1cc(-c2cc(C)cc(Cl)c2)c(Cl)cc1-c1ncnc2cc(S(=O)(=O)Nc3ccon3)ccc12 [Example 311, 4-(2,3′-dichloro-5-methoxy-5′-methyl-4-biphenylyl)-N-3-isoxazolyl-7-quinazolinesulfonamide]
7.66 | COc1cc(-c2cc(F)cc(Cl)c2)c(F)cc1-c1ncnc2cc(S(=O)(=O)Nc3ccon3)ccc12 [Example 302, 4-(3′-chloro-2,5′-difluoro-5-methoxy-4-biphenylyl)-N-3-isoxazolyl-7-quinazolinesulfonamide]
7.35 | COc1cc(-c2cc(F)cc(Cl)c2)c(Cl)cc1-c1ncnc2cc(S(=O)(=O)Nc3ccon3)ccc12 [Example 310, 4-(2,3′-dichloro-5′-fluoro-5-methoxy-4-biphenylyl)-N-3-isoxazolyl-7-quinazolinesulfonamide]
7.05 | COc1cc(-c2cccc(F)c2)c(Cl)cc1-c1ncnc2cc(S(=O)(=O)Nc3ncc(F)cn3)ccc12 [Example 289, 4-(2-chloro-3′-fluoro-5-methoxy-4-biphenylyl)-N-(5-fluoro-2-pyrimidinyl)-7-quinazolinesulfonamide]
